Laboratory results: PubChem BioAssay (NCI)
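Method: 48-hour compound exposure of cells in 96-well plates, five concentrations, linear interpolation of endpoints. Here, GI50 denotes the concentration required for 50% inhibition of growth. TGI denotes the concentration required for complete inhibition of growth.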 Residues, ends and D or L forms follow the SMILES beside them. *: point of attachment. Cbz = O=C(OCc1ccccc1)*

Key:
Assay in all cases: NCI tumour cell line growth inhibition, 48 h
UACC-62 melanoma = tested on: UACC-62 melanoma
OVCAR-3 ovarian = tested on: OVCAR-3 ovarian
RPMI-8226 leukemia = tested on: RPMI-8226 leukemia
DU-145 prostate = tested on: DU-145 prostate
NCI-H522 lung = tested on: NCI-H522 lung
IGROV1 ovarian = tested on: IGROV1 ovarian
HOP-92 NSCLC = tested on: HOP-92 NSCLC
786-0 renal = tested on: 786-0 renal
UACC-257 melanoma = tested on: UACC-257 melanoma
LOX IMVI melanoma = tested on: LOX IMVI melanoma

SMILES | GI50 (UACC-62 melanoma) [µM] | TGI (UACC-62 melanoma) [µM] | GI50 (OVCAR-3 ovarian) [µM] | TGI (OVCAR-3 ovarian) [µM] | GI50 (RPMI-8226 leukemia) [µM] | TGI (RPMI-8226 leukemia) [µM] | GI50 (DU-145 prostate) [µM] | TGI (DU-145 prostate) [µM] | GI50 (NCI-H522 lung) [µM] | TGI (NCI-H522 lung) [µM] | GI50 (IGROV1 ovarian) [µM] | TGI (IGROV1 ovarian) [µM] | GI50 (HOP-92 NSCLC) [µM] | TGI (HOP-92 NSCLC) [µM] | GI50 (786-0 renal) [µM] | TGI (786-0 renal) [µM] | GI50 (UACC-257 melanoma) [µM] | TGI (UACC-257 melanoma) [µM] | GI50 (LOX IMVI melanoma) [µM] | TGI (LOX IMVI melanoma) [µM]
O=[N+]([O-])c1ccc2c(c1)C(c1ccccc1Cl)=Nc1c(n[nH]c1-c1cccnc1)N2 | > 25 | > 25 | > 25 | > 25 | > 25 | > 25 | > 25 | > 25 | > 25 | > 25 | > 25 | > 25 | > 25 | > 25 | > 25 | > 25 | > 25 | > 25 | > 25 | > 25
CN(C)C=Nc1c(I)cc(I)c(CCC(=O)O)c1I | > 100 | > 100 | > 100 | > 100 | > 100 | > 100 | > 100 | > 100 | > 100 | > 100 | > 100 | > 100 | 45.4 | > 100 | > 100 | > 100 | > 100 | > 100 | > 100 | > 100
COC(=O)c1oc2c(C(=O)/C=C/c3ccc(OC)cc3)c(OCCN3CCOCC3)ccc2c1C | 1.55 | 3.19 | 1.89 | 5.69 | 1.57 | 4.2 | 1.75 | 4.24 | 1.61 | 3.54 | 1.85 | 4.55 | 1.54 | 5.48 | 1.77 | 4.1 | 1.99 | 4.25 | 1.4 | 2.79
CC/C=C\C[C@H](O)C/C=C1/C(=O)C=C[C@@H]1C/C=C\CCCCO | 1.87 | 5.46 | 3.72 | 12.9 | 2.52 | 10.4 | 4 | 15.2 | 1.74 | 3.95 | 3.22 | 12 | 11.7 | 25 | 1.91 | 3.77 | 2.59 | 9.36 | 1.34 | 2.93
Cc1sc2c(c1C)C(c1ccc(Cl)cc1)=N[C@@H](CC(=O)NCCCN1CCN(C)CC1)c1nnc(C)n1-2 | 0.214 | > 100 | 1.33 | > 100 | 0.0417 | 5.38 | > 100 | > 100 | 0.0746 | > 100 | 0.618 | > 100 | 0.032 | > 25.2 | 5.48 | > 100 | 3.26 | > 100 | 0.362 | > 69.9
[Cu+2].[NH-]C(CC(=O)O)C(=O)O.[NH-]C(CC(=O)O)C(=O)O (stereo not drawn) | > 100 | > 100 | > 100 | > 100 | > 100 | > 100 | > 100 | > 100 | 91.8 | > 100 | > 100 | > 100 | > 100 | > 100 | > 100 | > 100 | > 100 | > 100 | > 100 | > 100
NC(N)=Nc1ccc(/C=C2\C=Cc3ccccc32)cc1 | 2.84 | 9.94 | 3.05 | 8.93 | 3.18 | 14.4 | 2.36 | 5.03 | 2.39 | 5.79 | 2.02 | 5.12 | 1.44 | 4.6 | 3.22 | 14.8 | 4.99 | 18.3 | 1.63 | 3.02
CN(C)CCNC(=O)c1ccc2oc3cc4ccccc4c(=O)n3c2c1 | 48.4 | > 100 | 15.4 | 52.6 | 51.2 | > 100 | 33.4 | > 100 | 18.1 | 39.8 | 23.1 | > 100 | > 100 | > 100 | 71.6 | > 100 | 23.9 | 58 | 42.2 | > 100
Cc1ccsc1-c1ccc2c(c1)COC2(CCCN(C)C)c1ccc(F)cc1 (stereo not drawn) | 1.89 | 4.04 | 2.64 | 9.02 | 2.12 | 4.88 | 3.17 | 10.8 | 3.02 | 12.4 | 1.87 | 5.86 | 1.76 | 7.44 | 2.54 | 7.97 | 1.94 | 3.98 | 1.64 | 3.04
CC(C)C(=O)c1c(C(F)(F)F)n([O-])c2ccccc2[n+]1=O | 1.59 | 3.44 | 0.493 | 1.24 | 0.178 | 1.31 | 1.12 | 2.54 | 1.76 | 15.1 | 1.11 | – | 0.466 | 1.62 | 1.65 | 3.73 | 2.74 | 7.8 | 1.85 | –
Cc1ccccc1C(C(=O)NC1CCCCC1)N(C(=O)CNc1ncccc1F)c1cccc(F)c1 (stereo not drawn) | > 75.4 | > 100 | > 100 | > 100 | > 100 | > 100 | > 100 | > 100 | 74.9 | > 100 | > 80 | > 100 | 13.9 | 62.4 | 32.8 | > 100 | > 100 | > 100 | > 100 | > 100
C=C1C(=O)C2=CC1CCC(=O)C1(C)CCC(OC(C)=O)C(C)(C)C1CC2O (stereo not drawn) | – | 5.96 | – | 15.8 | – | > 100 | – | 13.9 | – | 2.19 | – | 14.1 | – | 20.3 | – | > 37.7 | – | 17 | – | > 22.5
COc1ccc(NC(=O)c2ccc(NC3=C(Cl)C(=O)N(Cc4ccccc4)C3=O)cc2)c(OC)c1 | 37.2 | > 100 | 15.1 | 33.2 | 4.85 | 22.8 | 28.8 | 85.7 | 19 | 68.9 | 10.8 | 73.8 | 6.27 | 47 | 23.3 | > 100 | 47 | > 100 | 30.1 | > 100
O=C(O)c1cn(C2CC2)c2cc(N3CCN(Cc4c(O)ccc5ccccc45)CC3)c(F)cc2c1=O | 13.5 | > 100 | 3.4 | 22.6 | 12 | > 100 | 3.78 | > 100 | 2.82 | > 100 | 9.64 | > 100 | 2.46 | 8.88 | 2.58 | 7.05 | > 100 | > 100 | 4.67 | > 100
Nc1ncn([C@H]2C[C@H](OP(=O)(O)OC[C@H]3O[C@@H](n4cnc5c(=O)[nH]c(N)nc54)C[C@@H]3O)[C@@H](CO)O2)c(=O)n1 | > 100 | > 100 | > 100 | > 100 | > 100 | > 100 | > 100 | > 100 | > 100 | > 100 | > 100 | > 100 | > 100 | > 100 | 71.8 | > 100 | > 100 | > 100 | 57 | > 100
N#Cc1c(N/N=C\c2ccc(Cl)cc2)nc(N)nc1N1CCOCC1 | 25.4 | > 100 | 22.5 | 60.5 | 16.4 | 44.3 | 28.8 | > 100 | 32.5 | > 100 | 26 | 97.4 | 36.3 | > 100 | 67.1 | > 100 | 32.2 | > 100 | 21.6 | 62.4
COc1ccc(OC)c(/C=C/c2ccnc3ccccc23)c1 | – | 7.59 | – | 1.76 | – | 26.3 | – | 13.1 | – | 1.79 | – | 17.4 | – | 18.1 | – | 15.4 | – | 18.8 | – | 14.4
Oc1ccccc1/C=N\NC(=S)N/N=C/c1ccccc1O | 1.23 | 7.56 | 0.451 | 24.6 | 2.77 | 34.2 | 2.95 | 61 | 5.76 | 36.5 | 1.53 | 16.2 | 10.3 | 64.5 | 3.49 | 20 | 2.6 | 16.6 | 1.4 | 27.7
C=CC(=O)Nc1cccc(Oc2nc(Nc3ccc(N4CCN(C)CC4)cc3OC)ncc2Cl)c1 | 1.87 | 3.58 | 1.7 | 4.44 | 1.97 | 5.1 | 1.59 | 6.07 | 0.308 | 1.75 | 1.29 | 3.56 | 0.743 | 2.55 | 1.47 | 2.94 | 1.62 | 3.17 | 1.58 | 2.99
CC(C)Cc1ccc(C(C)C(=O)NCc2ccc(Cn3c(=O)sn(CCCI)c3=O)cc2)cc1 (stereo not drawn) | 1.17 | 2.44 | 0.269 | 0.791 | 0.34 | 2.2 | 0.861 | 2.12 | 0.309 | 1.04 | 0.453 | 1.38 | 0.308 | 1.56 | 0.475 | 0.998 | 1.28 | 2.7 | 0.181 | 0.393
CN(C)Cc1c(C(=O)NCCOc2ccc(C(=O)NO)cc2)oc2ccccc12 | 0.151 | 0.63 | 0.272 | 0.969 | 0.138 | 0.662 | 0.225 | > 33.6 | 0.0819 | 0.574 | 0.438 | 3.6 | 0.0603 | 0.424 | 0.405 | 9.16 | 0.0689 | 0.592 | 0.289 | 1.11
CC(C)C[C@@H](C=O)NC(=O)[C@H](CC(C)C)NC(=O)[C@H](CC(C)C)NC(=O)OCc1ccccc1 (Cbz-Leu-Leu-Leu-aldehyde) | 0.235 | 0.548 | 0.225 | 0.538 | 0.356 | 13.8 | 0.53 | 10.6 | 0.212 | 0.614 | 0.444 | 3.08 | 0.319 | 0.797 | 0.349 | 1.4 | 0.251 | 0.628 | 0.206 | 0.46
C=CC(=O)N1CC[C@H](n2nc(C#Cc3cc(OC)cc(OC)c3)c3c(N)ncnc32)C1 | 6.95 | > 100 | 4.13 | > 100 | 2.45 | 33.3 | 7.56 | > 100 | 7.56 | 37.9 | 2.88 | > 100 | 1.84 | 9.23 | 2.24 | > 100 | 10.8 | > 100 | 5.72 | > 100
